Measured values from US7671085B2, “Non-steroidal farnesoid X receptor modulators and methods for the use thereof” (The Salk Institute for Biological Studies, priority 2002, dated 2010).
“Also recorded” adds a separate entry of the source.

Key:
[1] = tested on: FXR target genes SHP, MRP-2, BSEP and PLTP; assay: Northern blot of FXR target genes in HEPG2-FXR cells; assay type: cell-based; conditions: for induction of FXR target genes, in words: SHP, MRP-2, BSEP, PLTP; for concentration for maximal activation of FXR target genes: overnight treatment
Procedure: HepG2 or HT29-derived cell lines were typically cultured in medium containing superstripped FBS for 24 hr before the addition of a ligand or DMSO (vehicle) for an additional 24-48 hr. Total RNA was isolated using TRIzol reagent and was resolved (10 μg/lane) on a 1% agarose, 2.2 M formaldehyde gel, transferred to a nylon membrane (Hybond N^+; Amersham Biosciences, Inc.), and cross-linked to the membrane with UV light.
cDNA probes were radiolabeled with [α-^32P]dCTP using the highprime labeling kit (Amersham Biosciences, Inc.). Membranes were hybridized using the QuikHyb hybridization solution (Stratagene, La Jolla, Calif.) according to the manufacturer's protocol. Blots were normalized for variations of RNA loading by hybridization to a control probe, either, 18 S ribosomal cDNA, or the ribosomal protein 36B4. The RNA levels were quantitated using a PhosphorImager (ImageQuant software; Molecular Dynamics, Inc., Sunnyvale, Calif.) in addition to being exposed to X-ray film.
Total RNA was isolated and the expression of the FXR target genes SHP, MRP-2, BSEP and PLTP was measured by Northern blot analysis. […]

[2] = target: T1, FXR (Homo sapiens, UniProt Q96RI1); assay: cell-based FXR transcription assay, FXR responsive promoter linked to luciferase reporter; conditions: for RE^a: cell-based FXR reporter assay, footnote a not given; for FXR activation, in words: cell-based reporter assay, SAR discussion
T1 construct: using a full length FXR on a natural response element; expressed in transfected cells
T1 sequence (Q96RI1 1-486): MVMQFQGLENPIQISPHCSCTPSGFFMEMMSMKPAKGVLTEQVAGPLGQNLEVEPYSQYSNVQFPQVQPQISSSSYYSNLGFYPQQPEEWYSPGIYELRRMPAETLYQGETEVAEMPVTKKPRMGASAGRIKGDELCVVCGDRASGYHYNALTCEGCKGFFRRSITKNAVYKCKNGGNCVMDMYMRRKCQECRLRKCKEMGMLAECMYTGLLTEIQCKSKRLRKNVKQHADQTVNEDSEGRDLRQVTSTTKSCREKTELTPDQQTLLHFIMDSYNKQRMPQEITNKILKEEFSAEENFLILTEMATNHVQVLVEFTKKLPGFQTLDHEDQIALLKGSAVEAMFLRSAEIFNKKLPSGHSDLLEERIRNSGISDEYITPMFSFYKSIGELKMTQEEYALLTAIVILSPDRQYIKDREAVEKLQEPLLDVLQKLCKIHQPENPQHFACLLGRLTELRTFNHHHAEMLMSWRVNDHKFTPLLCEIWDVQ
Procedure, shortened: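 Cells co-transfected with full-length FXR and a luciferase reporter driven by a natural response element on a minimal promoter. Compound exposure ≈10 μM for 18 h before washing and luciferase read-out, in 384-well format, with CDCA as reference activator. EC50 derived from transcriptional activity.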

[3] = tested on: FXR (IBABP, PLTP and MRP-2 promoters); assay: transient transfection cell-based assay with natural promoters of FXR targets (IBABP, PLTP, MRP-2)
Text: For this study, the following gene promoters were used: intestinal bile acid binding protein (IBABP; see, for example, Grober et al. (1999). Identification of a bile acid-responsive element in the human ileal bile acid-binding protein gene. Involvement of the farnesoid X receptor/9-cis-retinoic acid receptor heterodimer. J Biol Chem. 274(42), 29749-54), phospholipid transfer protein (PLTP) (Urizar et al (2000). The farnesoid X-activated receptor mediates bile acid activation of phospholipid transfer protein gene expression. J Biol Chem. 275(50), 39313-7) and multidrug resistance related protein 2 (MRP-2) (Kast et al. (2002), supra), which are all well characterized targets of FXR. The natural promoters of both the IBABP and PLTP genes contain one copy of an inverted repeat with a one base spacing (IR-1) while MRP-2 contains an ER-8 element. […] The most robust activation (28-fold) was seen on the IBABP promoter. Less robust (2-3 fold) but specific activation was observed on the PLTP and MRP-2 promoters.

Structure (SMILES): COC(=O)C=Cc1cccc(N(Cc2ccc(C=Cc3ccccc3)cc2)C(=O)C2CCCCC2)c1 [Compound 121]
- induction of FXR target genes, in words [1]: strong induction
- concentration for maximal activation of FXR target genes [1]: 10 µM
- RE^a [2]: 1.55
- FXR activation, in words [2]: excellent activity; also recorded: among the most active
- concentration of maximum efficacy [3]: 1 µM

Structure (SMILES): COC(=O)/C=C/c1cccc(N(Cc2ccc(-c3ccc(N(C)C)cc3)cc2)C(=O)C2CCCCC2)c1 [Compound 259]
- induction of FXR target genes, in words ([1]; listed as fexaramine): most effective inducer of target genes; also recorded: matched GW4064 induced activation of the BSEP and MRP-2 genes
- concentration for maximal activation of FXR target genes [1]: 10 µM
- RE^a [2]: 1.72
- FXR activation, in words [2]: excellent activity
- concentration of maximum efficacy [3]: 1 µM

Structure (SMILES): COC(=O)/C=C/c1cccc(N(Cc2ccc(-c3ccc4c(c3)OCO4)cc2)C(=O)C2CCCCC2)c1 [Compound 244]
- induction of FXR target genes, in words [1]: strong induction
- concentration for maximal activation of FXR target genes [1]: 10 µM
- RE^a [2]: 1.90
- FXR activation, in words [2]: excellent activity
- concentration of maximum efficacy [3]: 1 µM
